Consider 17 compounds from ChEMBL document CHEMBL5321198, “Identification, in-vitro anti-plasmodial assessment and docking studies of series of tetrahydrobenzothieno[2,3-d]pyrimidine-acetamide molecular hybrids as potential antimalarial agents” (Eur J Med Chem, 2023).

Data set [1] has as its system Plasmodium falciparum. Put plainly: Antimalarial activity against chloroquine sensitive Plasmodium falciparum 3D7 infected in human erythrocytes assessed as inhibition of parasite growth incubated for 48 hrs by YOYO-1 dye based flow cytometric analysis. The settings on record: 3D7, 48 h. The format is functional, organism-based. A general note: Flow cytometry measures light scatter and fluorescence of single cells or particles in a stream.

A short description of data set [2]: Selectivity index, ratio of IC50 for cytotoxicity against human A549 cells to IC50 for antimalarial activity against chloroquine resistant Plasmodium falciparum W2 infected in human erythrocytes. Format: functional.
Data set [3] has as its system Plasmodium falciparum. Briefly: Resistance index, ratio of IC50 for antimalarial activity against chloroquine resistant Plasmodium falciparum W2 infected in human erythrocytes to IC50 for antimalarial activity against chloroquine sensitive Plasmodium falciparum 3D7 infected in human erythrocytes. The format is functional.
The next data set concerns A549. Briefly: Cytotoxicity against human A549 cells incubated for 24 hrs by MTT assay. The format is functional, cell-based. The settings on record: A549, 24 h. For orientation: Formazan colour is commonly taken as a measure of viable cells.
The test system of data set [4] is Erythrocyte. Briefly: Cytotoxicity against human erythrocyte at 3 to 100 uM incubated for 3 hrs by microplate reader assay. Format: toxicity, cell-based. The settings on record: dose 3-100 µM.
For another data set, the system named is MDA-MB-231. Put plainly: Cytotoxicity against human MDA-MB-231 cells incubated for 24 hrs by MTT assay. The format is functional, cell-based. The settings on record: MDA-MB-231, 24 h.
In data set [5] the test system is Plasmodium falciparum. Put plainly: Antimalarial activity against chloroquine resistant Plasmodium falciparum W2 infected in human erythrocytes assessed as inhibition of parasite growth incubated for 48 hrs by YOYO-1 dye based flow cytometric analysis. Format: functional, organism-based. As to conditions: W2, 48 h.
A short description of data set [6]: Cytotoxicity against human HPL1D cells incubated for 24 hrs by MTT assay. Format: toxicity, cell-based.
Data set [7] can be described thus: Selectivity index, ratio of IC50 for cytotoxicity against human HPL1D cells to IC50 for antimalarial activity against chloroquine resistant Plasmodium falciparum W2 infected in human erythrocytes. Format: toxicity, cell-based. As to conditions: read-out: Ratio IC50.
Data set [8] in a line: Selectivity index, ratio of IC50 for cytotoxicity against human MDA-MB-231 cells to IC50 for antimalarial activity against chloroquine resistant Plasmodium falciparum W2 infected in human erythrocytes. Format: functional.
For data set [9], the system named is Erythrocyte. Briefly: Hemolytic activity in human erythrocyte assessed as hemolysis at 25 uM incubated for 3 hrs by microplate reader assay. The format is toxicity, cell-based.

For the compound `COc1ccc(NC(=O)C(c2ccc(OC(F)(F)F)cc2)N2CCN(c3ncnc4sc5c(c34)CCCC5)CC2)cc1` (centres undefined), the IC50 with Plasmodium falciparum [1] came to 888 nM; with A549, 370 nM; in the data set on MDA-MB-231, 460 nM; in the data set with Plasmodium falciparum [5], 61 nM. Further, the “Ratio IC50” value is 6.08 in data set [2], 0.068 in the data set with Plasmodium falciparum [3] and 7.56 in [8]. Besides, the values for the Activity entry in the data set with Erythrocyte [4] and in the data set with Erythrocyte [9] were “Non-Toxic” and “Toxic”, respectively. In [6], this compound showed a half-maximal inhibitory concentration (IC50) at 24 h of 28700 nM. Moreover, the selectivity ratio in data set [7] amounted to 472.
In the case of `O=C(O)C(c1ccc(OC(F)(F)F)cc1)N1CCN(c2ncnc3sc4c(c23)CCCC4)CC1` (centres undefined), the half-maximal inhibitory concentration (IC50) in the data set with Plasmodium falciparum [5] was more than 10000 nM.
Take `COc1ccc(NC(=O)C(c2ccc(Cl)c(Cl)c2)N2CCN(c3ncnc4sc5c(c34)CCCC5)CC2)cc1` (centres undefined): the IC50 turned out to be 933 nM with Plasmodium falciparum [1], 810 nM in the data set with A549, 740 nM with MDA-MB-231 and 68 nM in the data set on Plasmodium falciparum [5]. The “Ratio IC50” value in [2] was 11.91; in the data set on Plasmodium falciparum [3], 0.073; in [8], 10.88. Also, the Activity result in the data set on Erythrocyte [4] is recorded as “Non-Toxic”; in the data set with Erythrocyte [9] it was “Toxic”. The same compound gave a 50% inhibitory concentration (IC50) at 24 h in [6] of 31300 nM. In addition, in data set [7], the selectivity ratio stood at 460.
Take `COc1ccc(NC(=O)C(c2ccc(F)c(F)c2)N2CCN(c3ncnc4sc5c(c34)CCCC5)CC2)cc1` (centres undefined): the IC50 is 728 nM with Plasmodium falciparum [1], 750 nM in the data set with A549, 310 nM with MDA-MB-231 and 133 nM in the data set with Plasmodium falciparum [5]. Further, the “Ratio IC50” value was found to be 5.64 in [2], 0.183 in the data set on Plasmodium falciparum [3] and 2.33 in data set [8]. Besides, the Activity entry was “Non-Toxic” with Erythrocyte [4] and “Toxic” with Erythrocyte [9]. In addition, the IC50 at 24 h in [6] was 27200 nM. Moreover, in [7], the selectivity ratio is 205.
For `Cc1ccc(C(C(=O)O)N2CCN(c3ncnc4sc5c(c34)CCCC5)CC2)cc1` (centres undefined), the IC50 in the data set with Plasmodium falciparum [5] was determined as 8520 nM.
With `O=C(O)C(c1ccc(Cl)c(Cl)c1)N1CCN(c2ncnc3sc4c(c23)CCCC4)CC1` (centres undefined), the IC50 in the data set on Plasmodium falciparum [5] was more than 10000 nM.
As to `COc1ccc(NC(=O)C(c2ccc(C)cc2)N2CCN(c3ncnc4sc5c(c34)CCCC5)CC2)cc1` (centres undefined), the 50% inhibitory concentration (IC50) in the data set on Plasmodium falciparum [1] came out at 692 nM; with Plasmodium falciparum [5], 268 nM. Besides, the “Ratio IC50” value with Plasmodium falciparum [3] is recorded as 0.387. The Activity entry in the data set on Erythrocyte [4] was “Non-Toxic”; with Erythrocyte [9] it was “Toxic”.
Consider `O=C(O)C(c1ccc(C(F)(F)F)cc1)N1CCN(c2ncnc3sc4c(c23)CCCC4)CC1` (centres undefined), for which the IC50 in the data set with Plasmodium falciparum [5] is 6630 nM.
Consider `COc1ccc(NC(=O)C(c2ccc(F)cc2)N2CCN(c3ncnc4sc5c(c34)CCCC5)CC2)cc1` (centres undefined), for which the IC50 with Plasmodium falciparum [1] is 1220 nM; with Plasmodium falciparum [5], 171 nM. The “Ratio IC50” value in the data set on Plasmodium falciparum [3] came out at 0.173. In addition, the Activity entry is given as “Non-Toxic” in the data set with Erythrocyte [4] and “Toxic” in the data set on Erythrocyte [9].
Take `COc1ccc(NC(=O)C(c2ccc(OC)cc2)N2CCN(c3ncnc4sc5c(c34)CCCC5)CC2)cc1` (centres undefined): the 50% inhibitory concentration (IC50) is 698 nM with Plasmodium falciparum [1] and 187 nM in the data set with Plasmodium falciparum [5]. Besides, the “Ratio IC50” value in the data set on Plasmodium falciparum [3] amounted to 0.268. In addition, the Activity entry is reported as “Non-Toxic” in the data set on Erythrocyte [4] and “Toxic” in the data set on Erythrocyte [9].
As for `COc1ccc(NC(=O)C(c2ccc(C(F)(F)F)cc2)N2CCN(c3ncnc4sc5c(c34)CCCC5)CC2)cc1` (centres undefined), the IC50 in the data set on Plasmodium falciparum [1] is 837 nM; with A549, 80 nM; with MDA-MB-231 it was 110 nM; in the data set on Plasmodium falciparum [5], 56 nM. Further, the “Ratio IC50” value in [2] was 1.43; with Plasmodium falciparum [3], 0.067; in [8], 1.97. Further, the Activity entry is given as “Non-Toxic” in the data set on Erythrocyte [4] and “Toxic” in the data set on Erythrocyte [9]. In addition, the IC50 at 24 h in data set [6] was 39900 nM. In addition, in data set [7], the selectivity ratio amounted to 716.
`COc1ccc(C(C(=O)O)N2CCN(c3ncnc4sc5c(c34)CCCC5)CC2)cc1` (centres undefined): in the data set on Plasmodium falciparum [5], the IC50 is more than 10000 nM.
As for `O=C(O)C(c1ccc(F)c(F)c1)N1CCN(c2ncnc3sc4c(c23)CCCC4)CC1` (centres undefined), the IC50 with Plasmodium falciparum [5] was more than 10000 nM.
As for `O=C(O)C(c1ccc(F)c(Cl)c1)N1CCN(c2ncnc3sc4c(c23)CCCC4)CC1` (centres undefined), the IC50 in the data set on Plasmodium falciparum [5] was more than 10000 nM.
Take `COc1ccc(NC(=O)C(c2ccc(F)c(Cl)c2)N2CCN(c3ncnc4sc5c(c34)CCCC5)CC2)cc1` (centres undefined): the IC50 with Plasmodium falciparum [1] was found to be 1080 nM; with A549, 430 nM; with MDA-MB-231 it was 520 nM; with Plasmodium falciparum [5], 125 nM. For the same compound, the “Ratio IC50” value in data set [2] came out at 3.43; with Plasmodium falciparum [3] it was 0.116; in [8], 4.15. Besides, the Activity entry in the data set on Erythrocyte [4] is “Non-Toxic”; in the data set with Erythrocyte [9], “Toxic”. In data set [6], this compound showed an IC50 at 24 h of 36100 nM. Further, in data set [7], the selectivity ratio is 288.
With `O=C(O)C(c1ccc(F)cc1)N1CCN(c2ncnc3sc4c(c23)CCCC4)CC1` (centres undefined), the IC50 with Plasmodium falciparum [5] is more than 10000 nM.
Turning to `COc1cccc2c1C(=O)c1c(O)c3c(c(O)c1C2=O)C[C@@](O)(C(=O)CO)C[C@@H]3O[C@H]1C[C@H](N)[C@H](O)[C@H](C)O1` [DOXORUBICIN], half-maximal inhibition with MDA-MB-231 (IC50) was put at 5800 nM.

Broadly, the IC50 is the concentration needed to halve the response being measured.
